Source: patent US7297705B2, “Azaindolylalkylamine derivatives as 5-hydroxytryptamine-6 ligands” (Wyeth, priority 2001, dated 2007)

molecular target: T1, human cloned 5-HT6 receptors (Homo sapiens, UniProt P50406); experiment: 5-HT6 binding affinity, [3H]-LSD displacement on membranes of Hela cells expressing human cloned 5-HT6 receptors; conditions: not given
T1 construct: expressed in transfected cells; host or cells: Hela cells
Method: Comparative Evaluation of 5-HT6 Binding Affinity of Test Compounds
The affinity of test compounds for the serotonin 5-HT6 receptor is evaluated in the following manner. Cultured Hela cells expressing human cloned 5-HT6 receptors are harvested and centrifuged at low speed (1,000×g) for 10.0 min to remove the culture media. The harvested cells are suspended in half volume of fresh physiological phosphate buffered saline solution and recentrifuged at the same speed. This operation is repeated. The collected cells are then homogenized in ten volumes of 50 mM Tris.HCl (pH 7.4) and 0.5 mM EDTA. The homogenate is centrifuged at 40,000×g for 30.0 min and the precipitate is collected. The obtained pellet is resuspended in 10 volumes of Tris.HCl buffer and recentrifuged at the same speed. The final pellet is suspended in a small volume of Tris.HCl buffer and the tissue protein content is determined in aliquots of 10-25 μl volumes. Bovine Serum Albumin is used as the standard in the protein determination according to the method described in Lowry et al., J. Biol. Chem., 193:265 (1951). The volume of the suspended cell membranes is adjusted to give a tissue protein concentration of 1.0 mg/ml of suspension. The prepared membrane suspension (10 times concentrated) is aliquoted in 1.0 ml volumes and stored at −70° C. until used in subsequent binding experiments.
The reaction is allowed to proceed in the dark for 120 min at room temperature, at which time, the bound ligand-receptor complex is filtered off on a 96 well unifilter with a Packard Filtermate® 196 Harvester. The bound complex caught on the filter disk is allowed to air dry and the radioactivity is measured in a Packard TopCount® equipped with six photomultiplier detectors, after the addition of 40.0 μl Microscint®-20 scintillant to each shallow well. The unifilter plate is heat-sealed and counted in a PackardTopCount® with a tritium efficiency of 31.0%.
Binding in the presence of varying concentrations of test compound is expressed as a percentage of specific binding in the absence of test compound. The results are plotted as log % bound versus log concentration of test compound. […] A linear regression line of data points is plotted, from which the IC50 value is determined and the Ki value is determined based upon the following equation: Ki=IC50/(1+L/KD) where L is the concentration of the radioactive ligand used and KD is the dissociation constant of the ligand for the receptor, both expressed in nM.

T1 sequence (P50406 whole entry): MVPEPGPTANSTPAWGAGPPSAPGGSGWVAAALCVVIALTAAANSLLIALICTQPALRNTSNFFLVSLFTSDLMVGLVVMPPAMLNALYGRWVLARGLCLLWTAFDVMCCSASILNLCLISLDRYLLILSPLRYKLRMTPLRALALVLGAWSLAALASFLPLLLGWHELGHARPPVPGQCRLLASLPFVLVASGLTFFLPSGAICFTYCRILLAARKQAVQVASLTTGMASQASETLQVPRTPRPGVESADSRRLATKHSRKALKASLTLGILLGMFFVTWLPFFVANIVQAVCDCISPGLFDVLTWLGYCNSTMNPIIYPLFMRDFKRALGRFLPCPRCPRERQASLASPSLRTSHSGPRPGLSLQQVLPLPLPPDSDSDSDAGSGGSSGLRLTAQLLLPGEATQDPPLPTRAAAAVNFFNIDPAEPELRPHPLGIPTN

First: NCCc1cn(S(=O)(=O)c2ccc3ccccc3c2)c2ncccc12 [Example 82]
Second: COc1ccc(S(=O)(=O)n2cc(CCN)c3cccnc32)cc1 [Example 84]
The Ki of the first is 6.2-fold lower: 12 nM for the first, 74.6 nM for the second. The first binds more tightly here.

Going from NCCc1cn(S(=O)(=O)c2cc(Cl)c(Cl)s2)c2ncccc12 [Example 131] to NCCc1cn(S(=O)(=O)c2cc(Br)c(Br)s2)c2ncccc12 [Example 133], the Ki falls from 19.7 nM to 10.7 nM (1.8-fold). The second binds more tightly here.

CN(C)CCc1cn(S(=O)(=O)c2ccccc2)c2ncccc12 [Example 94] and CN(C)CCc1cn(S(=O)(=O)c2cccc(F)c2)c2ncccc12 [Example 148] are within 1.5-fold of each other in Ki: 40 nM for the first, 28 nM for the second.

First: Cc1ccc(C)c(S(=O)(=O)n2cc(CCN)c3cccnc32)c1 [Example 108]
Second: Cc1ccc(F)cc1S(=O)(=O)n1cc(CCN)c2cccnc21 [Example 112]
The Ki of the first is 1.6-fold lower: 23.7 nM for the first, 38.7 nM for the second.

CN(C)CCc1cn(S(=O)(=O)c2ccccc2F)c2ncccc12 [Example 147] and CN(C)CCc1cn(S(=O)(=O)c2ccccc2C(F)(F)F)c2ncccc12 [Example 103] are within 1.5-fold of each other in Ki: 47.3 nM for the first, 38 nM for the second.

Going from Cc1cc(S(=O)(=O)n2cc(CCN)c3cccnc32)c(C)cc1Cl [Example 114] to Cc1cc(S(=O)(=O)n2cc(CCN(C)C)c3cccnc32)c(C)cc1Cl [Example 146], the Ki rises from 17.7 nM to 31.7 nM (1.8-fold).

CN(C)CCc1cn(S(=O)(=O)c2cccc(C(F)(F)F)c2)c2ncccc12 [Example 104] and NCCc1cn(S(=O)(=O)c2cccc(C(F)(F)F)c2)c2ncccc12 [Example 90] are within 1.5-fold of each other in Ki: 29.3 nM for the first, 21 nM for the second.

COc1cccc(S(=O)(=O)n2cc(CCN)c3cccnc32)c1 [Example 68, 2-[1-(3-Methoxybenzenesulfonyl)-1H-pyrrolo[2,3-b]pyridin-3-yl]ethylamine] and COc1cccc(S(=O)(=O)n2cc(CCN(C)C)c3cccnc32)c1 [Example 97] are within 1.5-fold of each other in Ki: 33.3 nM for the first, 24.6 nM for the second.

First: NCCc1cn(S(=O)(=O)c2ccccc2F)c2cccnc12 [Example 24]
Second: NCCc1cn(S(=O)(=O)c2cccc(F)c2)c2cccnc12 [Example 20]
The Ki of the first is 1.6-fold higher: 5.3 nM for the first, 3.3 nM for the second.

Compared with NCCc1cn(S(=O)(=O)c2cccc(Cl)c2)c2ncccc12 [Example 121], NCCc1cn(S(=O)(=O)c2cccc(F)c2)c2ncccc12 [Example 116] is 2.2-fold higher in Ki: 6 nM for the first, 13.4 nM for the second.

First: NCCc1cn(S(=O)(=O)c2c(Cl)nc3sc(Cl)cn23)c2cccnc12 [Example 26]
Second: NCCc1cn(S(=O)(=O)c2c(Cl)nc3sccn23)c2cccnc12 [Example 11]
The Ki of the first is 9.1-fold higher: 7.3 nM for the first, 0.8 nM for the second. The second binds more tightly here.

Compared with NCCc1cn(S(=O)(=O)c2cccc(Cl)c2Cl)c2ccncc12 [Example 47], NCCc1cn(S(=O)(=O)c2cccc(Cl)c2Cl)c2cccnc12 [Example 23] is 16-fold lower in Ki: 32.7 nM for the first, 2.1 nM for the second. The second binds more tightly here.

CN(C)CCc1cn(S(=O)(=O)c2ccc(Cl)s2)c2ncccc12 [Example 151] and NCCc1cn(S(=O)(=O)c2ccc(Cl)s2)c2ncccc12 [Example 129] are within 1.5-fold of each other in Ki: 13 nM for the first, 11.7 nM for the second.

CN(C)CCc1cn(S(=O)(=O)c2ccc(F)cc2Cl)c2ncccc12 [Example 144] and NCCc1cn(S(=O)(=O)c2ccc(F)cc2Cl)c2ncccc12 [Example 110] are within 1.5-fold of each other in Ki: 56.3 nM for the first, 38.3 nM for the second.

COc1ccc(S(=O)(=O)n2cc(CCN(C)C)c3cccnc32)cc1OC [Example 99] and CN(C)CCc1cn(S(=O)(=O)c2cc(Cl)sc2Cl)c2ncccc12 [Example 152] are within 1.5-fold of each other in Ki: 76.6 nM for the first, 53.7 nM for the second.

NCCc1cn(S(=O)(=O)c2ccc(F)c(F)c2)c2ncccc12 [Example 118] and NCCc1cn(S(=O)(=O)c2ccc(F)c(Cl)c2)c2ncccc12 [Example 109] are within 1.5-fold of each other in Ki: 89.3 nM for the first, 61.3 nM for the second.

Going from NCCc1cn(S(=O)(=O)c2c(Cl)nc3sccn23)c2ncccc12 [Example 154] to NCCc1cn(S(=O)(=O)c2c(Cl)nc3sccn23)c2ccncc12 [Example 35, 2-{[1-(6-Chloroimidazo[2,1-b]thiazol-5-yl)sulfonyl]-1H-pyrrolo[3,2-c]pyridin-3-yl)ethylamine], the Ki rises from 7.4 nM to 15.7 nM (2.1-fold). The first binds more tightly here.

Going from NCCc1cn(S(=O)(=O)c2ccc(F)c(F)c2)c2cccnc12 [Example 15] to Cc1cccc(S(=O)(=O)n2cc(CCN)c3ncccc32)c1 [Example 22], the Ki falls from 16 nM to 2.4 nM (6.7-fold).

NCCc1cn(S(=O)(=O)c2ccccc2C(F)(F)F)c2ncccc12 [Example 89] and NCCc1cn(S(=O)(=O)c2ccccc2Cl)c2ncccc12 [Example 120] are within 1.5-fold of each other in Ki: 38.3 nM for the first, 27 nM for the second.

Compared with NCCc1cn(S(=O)(=O)c2cnc3sccn23)c2ccncc12 [Example 39], NCCc1cn(S(=O)(=O)c2cnc3sccn23)c2cccnc12 [Example 18] is 29-fold lower in Ki: 47 nM for the first, 1.6 nM for the second.

Going from NCCc1cn(S(=O)(=O)c2ccc(C(F)(F)F)cc2Cl)c2cccnc12 [Example 14] to NCCc1cn(S(=O)(=O)c2cccc(C(F)(F)F)c2)c2cccnc12 [Example 13], the Ki falls from 15 nM to 5 nM (3-fold).

COc1cccc(S(=O)(=O)n2cc(CCN)c3ncccc32)c1 [Example 17] and Cc1ccc(S(=O)(=O)n2cc(CCN)c3cccnc32)cc1Cl [Example 111] are within 1.5-fold of each other in Ki: 2.9 nM for the first, 3.6 nM for the second.

Compared with CC(C)c1ccc(S(=O)(=O)n2cc(CCN)c3cccnc32)cc1 [Example 93], NCCc1cn(S(=O)(=O)c2ccc(N)cc2)c2ncccc12 [Example 83] is 16-fold lower in Ki: 39.3 nM for the first, 2.4 nM for the second.

First: NCCc1cn(S(=O)(=O)c2sc(Cl)cc2Br)c2ncccc12 [Example 134]
Second: NCCc1cn(S(=O)(=O)c2ccc(Br)s2)c2ncccc12 [Example 130]
The Ki of the first is 3.4-fold higher: 29 nM for the first, 8.5 nM for the second. The second binds more tightly here.

Compared with N#Cc1ccccc1S(=O)(=O)n1cc(CCN)c2cccnc21 [Example 87], NCCc1cn(S(=O)(=O)c2ccc(Cl)cc2)c2ncccc12 [Example 122] is 1.6-fold lower in Ki: 79 nM for the first, 50 nM for the second.

NCCc1cn(S(=O)(=O)c2ccc(Cl)s2)c2ccncc12 [Example 43] and CN(C)CCc1cn(S(=O)(=O)c2c(Cl)nc3ccccn23)c2ncccc12 [Example 153] are within 1.5-fold of each other in Ki: 47.5 nM for the first, 57.3 nM for the second.

same assay, conditions: [3H]-LSD 3.0 nM, 120 min at room temperature, Ki=IC50/(1+L/KD); read-out: 5-HT6 Binding Ki

With NCCc1cn(S(=O)(=O)c2ccccc2Cl)c2cccnc12 [Example 1, 2-[1-(2-Clorobenzensulfonyl)-1H-pyrrolo[3,2-b]pyridin-3-yl]ethylamine] the Ki was 5 nM.

same assay, conditions: read-out: 5-HT6 Binding Ki

Going from NCCc1cn(S(=O)(=O)c2c(Cl)nc3sc(Cl)cn23)c2ncccc12 [Example 158] to NCCc1cn(S(=O)(=O)c2c(Cl)nc3ccccn23)c2ncccc12 [Example 137], the Ki falls from 90.7 nM to 25 nM (3.6-fold).

First: NCCc1cn(S(=O)(=O)c2cccc3nonc23)c2ncccc12 [Example 141]
Second: NCCc1cn(S(=O)(=O)c2cccc3nsnc23)c2ncccc12 [Example 142]
The Ki of the first is 1.6-fold lower: 42.3 nM for the first, 69.7 nM for the second.

First: NCCc1cn(S(=O)(=O)c2cc(Cl)sc2Cl)c2ncccc12 [Example 132]
Second: NCCc1cn(S(=O)(=O)c2cc(Br)c(Cl)s2)c2ncccc12 [Example 135]
The Ki of the first is 3.2-fold higher: 52 nM for the first, 16.3 nM for the second.

COc1cccc(S(=O)(=O)n2cc(CCN)c3cnccc32)c1 [Example 42] and Cc1cccc(S(=O)(=O)n2cc(CCN)c3cnccc32)c1 [Example 45] are within 1.5-fold of each other in Ki: 198 nM for the first, 152 nM for the second.

First: NCCc1cn(S(=O)(=O)c2cccc(Cl)c2)c2ccncc12 [Example 40]
Second: NCCc1cn(S(=O)(=O)c2cccc(F)c2)c2ccncc12 [Example 41]
The Ki of the first is 1.5-fold lower: 110 nM for the first, 170 nM for the second. The first binds more tightly here.

First: NCCc1cn(S(=O)(=O)c2cccc(Br)c2)c2cccnc12 [Example 25]
Second: NCCc1cn(S(=O)(=O)c2cccc(Cl)c2)c2cccnc12 [Example 16]
The Ki of the first is 2.2-fold higher: 3.5 nM for the first, 1.6 nM for the second. The second binds more tightly here.

Going from NCCc1cn(S(=O)(=O)c2ccccc2)c2cccnc12 [Example 19] to NCCc1cn(S(=O)(=O)c2ccccc2)c2ncccc12 [Example 80], the Ki rises from 4.5 nM to 43 nM (9.6-fold).

First: COc1ccc(S(=O)(=O)n2cc(CCN)c3cccnc32)cc1OC [Example 85]
Second: COc1ccc(Cl)cc1S(=O)(=O)n1cc(CCN)c2cccnc21 [Example 113]
The Ki of the first is 1.8-fold lower: 106 nM for the first, 186 nM for the second. The first binds more tightly here.

NCCc1cn(S(=O)(=O)c2ccccc2)c2ccncc12 [Example 44] and NCCc1cn(S(=O)(=O)c2cccc(C(F)(F)F)c2)c2ccncc12 [Example 46] are within 1.5-fold of each other in Ki: 164 nM for the first, 173 nM for the second.

Compared with CC(C)(C)c1ccc(S(=O)(=O)n2cc(CCN)c3cccnc32)cc1 [Example 91], NCCc1cn(S(=O)(=O)c2ccccc2F)c2ncccc12 [Example 115] is 2.9-fold lower in Ki: 114 nM for the first, 39.3 nM for the second.

Compared with CN(C)CCc1cn(S(=O)(=O)c2ccc3ccccc3c2)c2ncccc12 [Example 96], NCCc1cn(S(=O)(=O)c2ccc(F)cc2F)c2ncccc12 [Example 71] is 5.8-fold higher in Ki: 19.6 nM for the first, 113 nM for the second. The first binds more tightly here.

First: NCCc1cn(S(=O)(=O)c2ccc(Cl)s2)c2cccnc12 [Example 5]
Second: NCCc1cn(S(=O)(=O)c2c(Cl)sc(Cl)c2Br)c2ncccc12 [Example 136]
The Ki of the first is 20-fold lower: 2 nM for the first, 40 nM for the second. The first binds more tightly here.
